Test results reported in PMC9032987, “Cytotoxic Alkylynols of the Sponge Cribrochalina vasculum: Structure, Synthetic Analogs and SAR Studies” (Marine Drugs, 2022).

Experiments:
Format in all cases: cell-based, human
NSCLC U-1810 cells = test: MTT cytotoxicity assay in NSCLC U-1810 cells; conditions: for IC50: U-1810, 72 h, MTT, 72 h post addition, estimated from cell viability curve; for viability at 162 µM: U-1810, at 162 µM
Experimental: (§1) Cytotoxicity structure-activity relationship analyses of compounds in NSCLC tumor cells and fibroblasts. Stock solutions (10 mg/mL) of the compounds to be tested were made in DMSO and further diluted with cell culture media prior to structure-activity relationship (SAR) screening as earlier described. To assess anti-tumor activity, the large cell lung carcinoma cell line NSCLC U-1810 (kind gift from Uppsala University) and diploid lung fibroblasts WI-38 [30] were used. U-1810 cells were propagated in RPMI-1640 medium (Sigma-Aldrich, St. Louis, […], USA) supplemented with FBS (10% HyClone) and L-glutamine (2 mmol/L, Invitrogen) while WI-38 fibroblasts were cultured in Eagle’s Minimum Essential Medium (Sigma-Aldrich) with 15% FBS and L-glutamine. For SAR assessment the cytotoxic assay 3-(4,5-dimethylthiazol-2-yl)-2,5 diphenyltetrazolium bromide (MTT) was applied. Profiling of U-1810 cells was carried out at 80% confluency (obtained by seeding 5000 cells/well in a 96-well plate for 24 h prior to treatment) and of WI-38 at 100% confluency (obtained by seeding 18,000 cells/well in a 96-well plate for 24 h prior to compound addition), the later to mimic the behavior of fibroblasts in the human body where they are non-dividing. For SAR evaluation, different concentrations of the compounds were added to fresh media while untreated cells were treated with DMSO corresponding to the amount applied when testing the highest concentration of the different compounds. The cytotoxicity of the compounds was assessed at 72 h post addition to cells by adding MTT solution (0.5 mg/mL, Sigma-Aldrich, 4 h at 37 °C) and dissolving the resulting formazan crystals in an SDS-containing solution (10% SDS and 0.01 mol/L HCl). Absorbance was quantified at 595 nm and the compound-induced cytotoxicity was calculated relative to that observed in DMSO-treated cells. The IC50 values were deduced from survival plots drawn in Graph Pad PRISM software vers.6 and for some of the compounds extrapolated as indicated in footnotes to Table 1.

[1] = MTT cytotoxicity assay in diploid lung fibroblasts WI-38; conditions: human, WI-38 diploid lung fibroblasts, 72 h, read-out: cell viability
Experimental: as §1

[2] = test system: WI-38 diploid lung fibroblasts; test: as above; conditions: Homo sapiens, WI-38, 72 h, MTT, 72 h post addition, confluent cells, estimated from cell viability curve
Experimental: as §1

[3] = calculated at IC50 (WI-38 IC50 / U-1810 IC50)
[4] = Homo sapiens, 72 h, read-out: cell viability

Row | Compound | IC50 (NSCLC U-1810 cells; Homo sapiens) | IC50 [2] | cytotoxic activity in NSCLC U-1810 cells (in words) (NSCLC U-1810 cells) | tumor selective cytotoxicity NSCLC vs WI-38 (in words) (NSCLC U-1810 cells) | Selectivity NSCLC cells (U-1810) vs. diploid fibroblasts (WI-38) (NSCLC U-1810 cells; [3]) | further results
1 | C#CC(O)c1cccc(CCCCCCCCCCCCCC)c1 (racemic) [rac-45, 1-(3-tetradecylphenyl)prop-2-yn-1-ol] | ~152 µM |  |  |  |  | viability at 76 µM (NSCLC U-1810 cells; Homo sapiens, U-1810, at 76 µM, one experiment, read-out: cell viability): ~70%
2 | C#CC(CCCCCCCCCCCCCCC)OS(=O)(=O)c1ccc(C)cc1 (racemic) [rac-35, Octadec-1-yn-3-yl 4-methylbenzenesulfonate] | 23 µM | > 119 µM |  |  |  | viability at 72 h, 119 µM ([1]; WI-38, at 119 µM): ~85%; Selectivity NSCLC cells (U-1810) vs. diploid fibroblasts (WI-38) (NSCLC U-1810 cells; calculated at IC50 of U-1810 and the highest dose applied in WI-38 (IC50 not reached)): >5.2 ^s
3 | C#CC(O)CCCCCCCCC (racemic) [rac-31, Dodec-1-yn-3-ol] | 15 µM |  | much lower toxicity |  |  | 
4 | C#CC(O)C=CCCCCCCCC1CC1CCCCCC (stereo not drawn) [Compound 8] | 1 µM | 10 µM | equally active | selectivity at lower doses | 10 | 
5 | C#CC(C)(O)CCCCCCCCCCCCCCCC (racemic) [rac-41, 3-Methylnonadec-1-yn-3-ol] | > 162 µM |  |  |  |  | viability at 162 µM (NSCLC U-1810 cells; [4]): ~54%
6 | C#CC(CCCCCCCCCCCCCCC)OC (racemic) [rac-38, 3-Methoxyoctadec-1-yne] | > 179 µM | > 179 µM |  | did not display any specific cytotoxicity |  | viability at 72 h, 179 µM ([1]; WI-38, at 179 µM): ~77%; viability at 179 µM (NSCLC U-1810 cells; Homo sapiens, U-1810, at 179 µM, 72 h, read-out: cell viability): ~71%
7 | C#C[C@H](O)/C=C/CCCCCCCCCCCCCC(C)C [Compound 19, (3R)-19-Methylicos-(4E)-en-1-yn-3-ol] | 2 µM | 13 µM | equally active |  | 6.5 | 
8 | C#C[C@H](O)/C=C/CCCCCCCCCCCCC(C)C [Compound 1, (3R)-18-Methylnonadec-(4E)-en-1-yn-3-ol] | 1 µM | 12 µM | equally active | selectivity at lower doses | 12 | 
9 | C#CC(N)CCCCCCCCCCCCCCC (racemic) [rac-37, Octadec-1-yn-3-amine] | 29 µM | 34 µM |  |  | 1.2 | 
10 | C#CC(O)/C=C/CCCCCCCCCCCCCCC (racemic) [rac-18, rac-Icos-(4E)-en-1-yn-3-ol] | 1.2 µM | 8.3 µM |  |  | 6.9 | 
11 | C#C[C@H](O)CCCCCCCCCCC(C)CCCCCC (stereo partly drawn) [Compound 7, (3R)-14-Methylicos-1-yn-3-ol] | 3 µM | > 163 µM | equally active | clear tumor selective activity |  | 
12 | CC#CC(O)CCCCCCCCCCCCCCCCC (racemic) [rac-42, Henicos-2-yn-4-ol] | > 162 µM |  |  |  |  | viability at 162 µM (NSCLC U-1810 cells; [4]): ~90%
13 | C#CC(S)CCCCCCCCCCCCCCC (racemic) [rac-40, Octadec-1-yne-3-thiol] | > 177 µM | > 177 µM |  | did not display any specific cytotoxicity |  | viability at 72 h, 177 µM ([1]; WI-38, at 177 µM): ~100%; viability at 177 µM (NSCLC U-1810 cells; Homo sapiens, U-1810, at 177 µM, 72 h, read-out: cell viability): ~100%
14 | C#C[C@H](O)/C=C/CCCCCCCCC/C=C\CCCCC(C)C [Compound 22, (3R)-21-Methyldocos-(4E,15Z)-dien-1-yn-3-ol] | 1.2 µM | 13 µM | equally active |  | 10.8 | 
15 | C#C[C@H](CCCCCCCCCCCCCCC)OC(=O)[C@](OC)(c1ccccc1)C(F)(F)F [S,R-34, (R)-((S)-octadec-1-yn-3-yl)-3,3,3-trifluoro-2-methoxy-2-phenylpropanoate] | > 113 µM | > 113 µM |  |  |  | viability at 72 h, 113 µM ([1]; WI-38, at 113 µM): ~100%; viability at 113 µM (NSCLC U-1810 cells; Homo sapiens, U-1810, at 113 µM, 72 h, read-out: cell viability): ~96%
